Bridges are numbered along the chain shown (N, C = ends). Roman numbers before positions name the chains, in order. Where no end group is shown, it is not given here.

In one assay the target is Aβ40-1. As to the kind of experiment: Competitive ELISA with reversed Aβ (Aβ40-1) as negative control. The assay is classed as binding. The following applies: competitive ELISA with biotinylated reverse Aβ40-1; signal only at the highest neurolide concentration; p < 0.0001 versus Aβ1-40. The procedure:
NL1 and NL1-derived peptide binding to Aβ was measured by competitive ELISA using the shorter Aβ1-40 peptide with a slower polymerization constant, optimized for this binding assay. Recombinant NL1 (3.125 nM) was immobilized on a poly-sorb 96-well plate (NUNC, Roskilde, Denmark) using sodium bicarbonate buffer (pH 9.6), and left overnight at 4 °C, followed by washing with PBST buffer (PBS supplemented with 0.1% [vol/vol] Tween-20, pH 7.4). In separate tubes, biotinylated Aβ1-40, at final concentration 400 nM, was premixed with serially diluted NL1 or NL1-derived peptides for 30 min. A reversed version of Aβ (Aβ40-1) was used as the respective negative control (Supplementary Fig. 1). After preincubation, the samples were centrifuged at 20,000 × g for 10 min at 4 °C and 100 μl of the mixtures were transferred in triplicates onto the precoated ELISA plate. Plates were incubated at room temperature for 4 h, followed by washing and incubation with streptavidin-HRP conjugate (1:1000, 1 h; Dako, Glostrup, Denmark). The signal was developed with TMB ONE (KEM-EN-TEC, Denmark), and the reaction was terminated with 0.2 M H2SO4. Absorbance was measured at 450 nm on a Wallac VICTOR2 1420 Multilabel Counter (PerkinElmer, Hvidovre, Denmark). […]
(In general: An ELISA detects its analyte on a solid surface through an enzyme-linked reagent.)

The target in the next assay is T1, brain-derived NEP (Mus musculus, UniProt Q61391).
T1 construct: Clear supernatants were used as membrane-extracted fractions; from tissue; host or cells: adult mouse brain without cerebellum, Triton X-100-extracted membrane fraction
T1 sequence (Q61391 1-750): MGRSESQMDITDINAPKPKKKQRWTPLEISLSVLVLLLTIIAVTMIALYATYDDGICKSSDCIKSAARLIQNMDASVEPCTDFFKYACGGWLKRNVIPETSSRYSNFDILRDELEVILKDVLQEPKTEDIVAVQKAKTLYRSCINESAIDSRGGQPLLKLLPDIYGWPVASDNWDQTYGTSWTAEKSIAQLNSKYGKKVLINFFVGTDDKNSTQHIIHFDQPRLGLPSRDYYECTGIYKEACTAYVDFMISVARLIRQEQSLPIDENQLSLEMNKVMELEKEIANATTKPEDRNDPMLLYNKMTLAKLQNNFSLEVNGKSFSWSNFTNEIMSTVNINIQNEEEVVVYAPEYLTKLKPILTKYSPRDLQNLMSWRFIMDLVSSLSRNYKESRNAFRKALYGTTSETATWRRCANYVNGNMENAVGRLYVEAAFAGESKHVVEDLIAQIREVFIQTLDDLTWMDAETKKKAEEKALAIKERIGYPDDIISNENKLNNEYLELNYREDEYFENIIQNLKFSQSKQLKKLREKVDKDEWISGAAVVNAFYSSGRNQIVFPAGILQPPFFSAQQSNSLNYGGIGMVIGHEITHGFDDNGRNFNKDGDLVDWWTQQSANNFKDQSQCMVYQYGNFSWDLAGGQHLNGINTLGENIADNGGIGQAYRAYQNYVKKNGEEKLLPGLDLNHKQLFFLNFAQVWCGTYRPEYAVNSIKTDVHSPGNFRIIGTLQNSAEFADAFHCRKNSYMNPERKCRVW
Briefly: Neprilysin activity in NEP-enriched brain membrane fraction of WT mice. The following applies: 40 μg protein, n = 5. The assay is classed as biochemical, mouse (C57Bl/6j). The procedure:
To measure NEP activity in brain tissue, whole brains without cerebellum were dissected from adult mice (C57Bl/6j or 5XFAD) and homogenized with a Teflon-glass homogenizer in five volumes (w/v) of ice-cold lysis buffer containing PBS (pH 7.4), 0.25 M sucrose and protease inhibitor cocktail (Complete™, EDTA-free, Roche Diagnostics, Indianapolis, IN). The homogenates were centrifuged at 9000 × g for 15 min at 4 °C. The supernatants were further centrifuged at 20,000 × g at 4 °C for 20 min. The resulting pellets were solubilized in resuspension buffer containing PBS (pH 7.4) and 1% Triton X-100 for 1 h on ice and again centrifuged at 20,000 × g at 4 °C for 20 min. Clear supernatants were used as membrane-extracted fractions. Protein concentrations of Triton-extracted membrane fractions were determined using the Pierce BCA Protein Assay kit (Thermo Fisher Scientific). The standard assay mixture consisted of membrane fraction containing 40 μg total protein diluted in 40 μl of dilution buffer, 10 μl of testing compound (NL1, neurolide or vehicle), and 50 μl of NEP substrate (5-FAM/QXL; Anaspec) in a total volume of 100 μl. The reaction was initiated by adding substrate to the assay mixture. […] Positive and negative controls were set up according to the manufacturer’s protocol (Anaspec). Fluorescence was measured at Ex/Em = 485/535 nm every 20 min for 2 h. The data were expressed as percentage of relative activity of neprilysin.

A further assay deals with T2, recombinant rat NL1 (Rattus norvegicus, UniProt Q62765).
T2 construct: the extracellular domain of NL1 was immobilized on a sensor chip; purchased R&D systems (Abingdon, UK)
As to the kind of experiment: Surface plasmon resonance binding to immobilized NL1. The following applies: SPR, KD for Aβ1-42 versus KD for NX1β. Here is the method:
Binding analysis was performed on a Biacore 2000 SPR biosensor (GE Healthcare) at 25 °C using HBS-P (10 mM HEPES, pH 7.4, 150 mM NaCl, 0.005% [v/v] Surfactant P20) supplemented with 3 mM CaCl2 as a running buffer. Approximately 2000 Resonance Units (RU) of NL1 was immobilized on a CM4 sensor chip at a flow rate of 5 μl/min by amine coupling. Binding to serially diluted recombinant NX1β, used as a positive control, was performed as previously described. Aβ1-42 was dissolved in anhydrous DMSO to a stock concentration of 3.21 mM followed by serial dilution in running buffer. Peptide was injected into the chip, and binding experiments were performed at a flow rate of 20 μl/min, followed by regeneration of sensor chip with 10 μl of 15 mM NaOH and 150 mM NaCl. After subtraction of blank control, the binding curves were analyzed based on a nonlinear curve fitting using a 1:1 Langmuir binding model and the software package BIAevaluation 4 (GE Healthcare). The apparent equilibrium constant (KD) was calculated as kd/ka, in which ka and kd are the apparent association and dissociation constants, respectively.
On the technique in general: SPR reads the build-up and loss of mass on a sensor chip optically.

What is called Kd is the free concentration of one partner at which half of the binding sites on the other are occupied at equilibrium, for simple one-to-one binding. Low readings indicate a tighter complex, high ones a looser complex. On Aβ40-1, “I: SEGNRWSNSTKGLFQRAKK-NH2 / II: SEGNRWSNSTKGLFQRAK / III: SEGNRWSNSTKGLFQRA / IV: SEGNRWSNSTKGLFQRA (amide I:18-IV:C, I:19-II:C, II:18-III:C; C-terminus assumed) [neurolide]” came in with a Kd of 7.5 µM. The “activity of brain-derived NEP” value at brain-derived NEP (neurolide 10 μM) is recorded as “significantly decreased”.

B1: NL1: recombinant rat neuroligin-1, soluble ectodomain (R&D systems) (protein, UniProt Q62765 46-697, looked up)
extracellular domain: QKLDDVDPLVTTNFGKIRGIKKELNNEILGPVIQFLGVPYAAPPTGEHRFQPPEPPSPWSDIRNATQFAPVCPQNIIDGRLPEVMLPVWFTNNLDVVSSYVQDQSEDCLYLNIYVPTEDVKRISKECARKPGKKICRKGDIRDSGGPKPVMVYIHGGSYMEGTGNLYDGSVLASYGNVIVITVNYRLGVLGFLSTGDQAAKGNYGLLDLIQALRWTSENIGFFGGDPLRITVFGSGAGGSCVNLLTLSHYSEGNRWSNSTKGLFQRAIAQSGTALSSWAVSFQPAKYARILATKVGCNVSDTVELVECLQKKPYKELVDQDVQPARYHIAFGPVIDGDVIPDDPQILMEQGEFLNYDIMLGVNQGEGLKFVENIVDSDDGVSASDFDFAVSNFVDNLYGYPEGKDVLRETIKFMYTDWADRHNPETRRKTLLALFTDHQWVAPAVATADLHSNFGSPTYFYAFYHHCQTDQVPAWADAAHGDEVPYVLGIPMIGPTELFPCNFSKNDVMLSAVVMTYWTNFAKTGDPNQPVPQDTKFIHTKPNRFEEVAWTRYSQKDQLYLHIGLKPRVKEHYRANKVNLWLELVPHLHNLNDISQYTSTTTKVPSTDITLRPTRKNSTPVTSAFPTAKQDDPKQQPSPFSVDQRDYSTELS
modifications: extracellular domain
Take B1: in the assay with brain-derived NEP (sNL1 0.3 μM), the “activity of brain-derived NEP” value was “significantly decreased”. The “affinity constant KD of NL1 to Aβ, times lower compared to NX1β” value in the assay with recombinant rat NL1 was “approximately 11 times”.

The record behind these values is article PMC11790763, “A Peptide Motif Covering Splice Site B in Neuroligin-1 Binds to Aβ and Acts as a Neprilysin Inhibitor” (Molecular Neurobiology, 2024).
